Molecules are shown by their SMILES. Where only a bound is given, the exact number is not on record here.

What all share (type): cell-based
The target of test [1] is EGFR(D770_N771insSVD) expressing Ba/F3 stable cell line (Homo sapiens, UniProt P00533, DUP768-770, cells depend on it). Kind of test: Cellular proliferation (Alamar Blue) assay, EGFR D770_N771insSVD Ba/F3. To be noted: 72 hr, read-out: D770 IC50. Put shortly: (§1)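 Each stable Ba/F3 line, cultured in RPMI with 10% FBS at 15,000 cells per well, received a threefold compound series (final top 10 μM, bottom 0.0005 μM) for 72 hr at 37 degree Celsius, then Alamar Blue for 3 h.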
On the technique in general: Alamar Blue is a resazurin reagent that responds to reducing activity.

For test [2], the target named is EGFR (A767_dupASV) expressing Ba/F3 stable cell line (Homo sapiens, UniProt P00533, DUP767-769, cells depend on it). Kind of test: Cellular proliferation (Alamar Blue) assay, EGFR A767_dupASV Ba/F3. To be noted: 72 hr, read-out: A767 IC50. Summed up: as §1
For another test, the system named is A431 cells. Kind of test: Cellular proliferation (Alamar Blue) assay, A431. To be noted: Homo sapiens, A-431; A431 cells, Alamar Blue, 72 hr; read-out: A431 IC50.
Test [3] concerns the target HER2 (A775_G776insYVMA) expressing Ba/F3 stable cell line (Homo sapiens, UniProt P04626, DUP772-775, cells depend on it). Kind of test: Cellular proliferation (Alamar Blue) assay, HER2 A775_G776insYVMA Ba/F3. To be noted: 72 hr, read-out: YVMA IC50. The procedure:
• 1. EGFR(D770_N771insSVD) expressing Ba/F3 stable cell line • 2. EGFR (A767_dupASV) expressing Ba/F3 stable cell line • 3. A431 cells • 4. EGFR (H773insNPH) expressing Ba/F3 stable cell line • 5. HER2 (A775_G776insYVMA) expressing Ba/F3 stable cell line Assay Procedure: • 1. Seed cells at 5000 for A431 and 15,000 cells for Ba/F3 in 100 μL/well in complete media (for A431: DMEM with […] and for Ba/F3 cells: RPMI with 10% FBS) in 96-well tissue culture plate. Leave outer wells without cells for background measurements. Incubate at 37 degree Celsius in […] humidified incubator for 16-18 hours. • 2. Add 0.025 ml of 5× concentration compound dilution or DMSO control. Final compound concentration range is 10-0.0005 μM prepared in 3-fold serial dilutions. Incubate for 72 hr at 37 degree Celsius in […] humidified incubator. • 3. Add 0.0125 ml Alamar Blue™ reagent to each well with multi-channel pipette and tap gently on each side of the plate to mix. Incubate for 3 hours at 37 degree Celsius in 5% CO2 humidified incubator. • 4. […] Data analysis was performed using XLfit 5.5.0.5.

Sequence of EGFR (A767_dupASV) expressing Ba/F3 stable cell line (P00533 with tags, fused parts or gaps DUP767-769): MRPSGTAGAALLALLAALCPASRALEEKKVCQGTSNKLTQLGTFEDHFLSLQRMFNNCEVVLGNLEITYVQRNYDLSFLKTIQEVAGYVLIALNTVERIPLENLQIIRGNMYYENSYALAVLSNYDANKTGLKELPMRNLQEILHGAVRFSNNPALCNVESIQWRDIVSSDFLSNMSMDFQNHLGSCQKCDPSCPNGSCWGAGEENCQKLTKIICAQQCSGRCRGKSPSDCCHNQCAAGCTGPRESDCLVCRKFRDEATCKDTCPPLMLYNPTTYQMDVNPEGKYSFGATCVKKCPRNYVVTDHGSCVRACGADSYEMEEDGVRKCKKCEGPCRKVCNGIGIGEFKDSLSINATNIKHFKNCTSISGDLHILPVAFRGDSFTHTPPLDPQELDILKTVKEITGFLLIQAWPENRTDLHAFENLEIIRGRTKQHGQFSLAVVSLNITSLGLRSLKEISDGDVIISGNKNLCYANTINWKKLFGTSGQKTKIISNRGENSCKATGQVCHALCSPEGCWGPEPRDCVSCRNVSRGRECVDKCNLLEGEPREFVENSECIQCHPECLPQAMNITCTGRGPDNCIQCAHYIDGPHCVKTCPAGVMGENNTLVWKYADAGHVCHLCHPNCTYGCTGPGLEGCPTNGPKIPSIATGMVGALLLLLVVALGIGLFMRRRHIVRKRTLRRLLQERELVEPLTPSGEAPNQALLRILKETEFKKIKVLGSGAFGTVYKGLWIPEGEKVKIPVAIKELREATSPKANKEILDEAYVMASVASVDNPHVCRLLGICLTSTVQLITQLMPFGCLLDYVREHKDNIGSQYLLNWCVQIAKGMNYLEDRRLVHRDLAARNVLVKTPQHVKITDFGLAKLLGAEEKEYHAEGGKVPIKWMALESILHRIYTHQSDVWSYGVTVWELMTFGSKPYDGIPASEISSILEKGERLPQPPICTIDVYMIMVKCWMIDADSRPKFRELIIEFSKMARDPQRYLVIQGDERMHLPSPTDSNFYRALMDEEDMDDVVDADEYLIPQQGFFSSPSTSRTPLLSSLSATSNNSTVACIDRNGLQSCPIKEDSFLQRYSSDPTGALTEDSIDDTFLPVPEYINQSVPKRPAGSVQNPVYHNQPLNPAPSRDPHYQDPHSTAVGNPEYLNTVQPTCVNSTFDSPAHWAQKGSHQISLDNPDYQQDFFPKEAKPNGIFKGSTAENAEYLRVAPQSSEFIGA
Sequence of HER2 (A775_G776insYVMA) expressing Ba/F3 stable cell line (P04626 with tags, fused parts or gaps DUP772-775): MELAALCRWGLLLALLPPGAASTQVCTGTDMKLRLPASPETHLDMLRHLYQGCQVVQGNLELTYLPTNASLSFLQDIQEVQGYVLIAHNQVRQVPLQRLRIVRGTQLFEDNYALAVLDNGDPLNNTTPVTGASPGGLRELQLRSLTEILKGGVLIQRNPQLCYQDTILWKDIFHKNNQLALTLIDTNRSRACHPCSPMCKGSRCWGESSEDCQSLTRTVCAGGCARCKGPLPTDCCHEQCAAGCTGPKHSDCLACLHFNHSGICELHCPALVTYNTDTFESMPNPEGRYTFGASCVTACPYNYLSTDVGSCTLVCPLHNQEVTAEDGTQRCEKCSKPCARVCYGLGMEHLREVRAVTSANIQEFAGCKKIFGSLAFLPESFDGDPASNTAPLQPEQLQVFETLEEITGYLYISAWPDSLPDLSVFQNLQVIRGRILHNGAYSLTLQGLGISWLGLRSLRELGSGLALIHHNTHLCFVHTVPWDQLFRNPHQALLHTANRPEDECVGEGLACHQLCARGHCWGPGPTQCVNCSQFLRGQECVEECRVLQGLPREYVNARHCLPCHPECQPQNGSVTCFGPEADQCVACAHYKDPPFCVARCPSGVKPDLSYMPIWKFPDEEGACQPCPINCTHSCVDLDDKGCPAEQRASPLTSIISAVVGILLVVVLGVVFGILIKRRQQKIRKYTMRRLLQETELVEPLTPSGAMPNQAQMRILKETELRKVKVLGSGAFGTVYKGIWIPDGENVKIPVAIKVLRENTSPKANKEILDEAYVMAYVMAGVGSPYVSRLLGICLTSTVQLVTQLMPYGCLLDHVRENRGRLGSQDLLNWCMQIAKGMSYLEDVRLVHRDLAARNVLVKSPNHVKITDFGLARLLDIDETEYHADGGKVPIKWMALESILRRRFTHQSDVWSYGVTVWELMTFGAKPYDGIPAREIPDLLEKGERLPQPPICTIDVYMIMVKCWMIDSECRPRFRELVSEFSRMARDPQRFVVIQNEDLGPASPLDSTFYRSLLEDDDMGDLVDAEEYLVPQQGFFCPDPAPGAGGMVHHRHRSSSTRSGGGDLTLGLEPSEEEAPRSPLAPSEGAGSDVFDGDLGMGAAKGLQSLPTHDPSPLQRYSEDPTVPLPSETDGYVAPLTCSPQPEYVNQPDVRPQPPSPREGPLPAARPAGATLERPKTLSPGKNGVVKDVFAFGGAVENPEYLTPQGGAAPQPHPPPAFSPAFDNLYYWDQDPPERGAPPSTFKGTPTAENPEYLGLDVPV
Sequence of EGFR(D770_N771insSVD) expressing Ba/F3 stable cell line (P00533 with tags, fused parts or gaps DUP768-770): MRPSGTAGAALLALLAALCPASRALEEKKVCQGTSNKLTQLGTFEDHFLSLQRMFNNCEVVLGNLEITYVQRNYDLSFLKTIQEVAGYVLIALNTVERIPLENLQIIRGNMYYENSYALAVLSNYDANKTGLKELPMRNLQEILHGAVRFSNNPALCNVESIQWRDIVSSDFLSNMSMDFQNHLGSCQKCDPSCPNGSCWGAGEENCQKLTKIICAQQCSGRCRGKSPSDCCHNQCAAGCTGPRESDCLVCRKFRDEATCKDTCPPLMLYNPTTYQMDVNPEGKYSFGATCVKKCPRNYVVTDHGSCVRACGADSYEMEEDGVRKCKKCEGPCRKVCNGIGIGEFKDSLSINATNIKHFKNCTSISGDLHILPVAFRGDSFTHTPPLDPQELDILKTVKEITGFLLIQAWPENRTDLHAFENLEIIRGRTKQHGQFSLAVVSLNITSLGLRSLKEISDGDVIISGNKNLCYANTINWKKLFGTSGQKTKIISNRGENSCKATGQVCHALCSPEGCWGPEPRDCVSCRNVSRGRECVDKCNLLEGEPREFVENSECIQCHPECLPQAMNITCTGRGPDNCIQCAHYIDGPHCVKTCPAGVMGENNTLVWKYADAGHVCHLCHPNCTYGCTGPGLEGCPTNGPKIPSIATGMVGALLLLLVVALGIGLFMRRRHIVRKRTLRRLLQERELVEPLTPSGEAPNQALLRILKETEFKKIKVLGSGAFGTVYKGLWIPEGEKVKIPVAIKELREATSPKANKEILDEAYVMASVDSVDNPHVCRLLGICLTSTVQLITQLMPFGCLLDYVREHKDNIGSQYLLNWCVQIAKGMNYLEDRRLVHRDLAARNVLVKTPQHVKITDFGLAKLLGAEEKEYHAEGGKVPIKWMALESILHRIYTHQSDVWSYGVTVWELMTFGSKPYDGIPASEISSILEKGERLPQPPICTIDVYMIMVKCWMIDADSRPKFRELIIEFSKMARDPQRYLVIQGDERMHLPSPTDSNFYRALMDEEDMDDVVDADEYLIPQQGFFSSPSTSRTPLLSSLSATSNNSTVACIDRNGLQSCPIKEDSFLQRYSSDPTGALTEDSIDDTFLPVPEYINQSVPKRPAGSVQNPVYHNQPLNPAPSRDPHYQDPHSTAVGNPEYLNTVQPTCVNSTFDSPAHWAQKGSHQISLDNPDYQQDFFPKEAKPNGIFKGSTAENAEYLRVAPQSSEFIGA

What is called IC50 is the point on the concentration scale where inhibition reaches its midpoint. As for `C/C=C/C(=O)Nc1ccc(F)c(Nc2nc(Nc3cnn(C)c3)ncc2Cl)c1` [Compound 11, (E)-N-(3-((5-chloro-2-((1-methyl-1H-pyrazol-4-yl)amino)pyrimidin-4-yl)amino)-4-fluorophenyl)but-2-enamide], the figures for the GI50 in test [1], in test [2] and in test [3] were greater than 10 µM, greater than 10 µM and 4.72 µM, respectively. In the test on A431 cells, the IC50 was greater than 10 µM.
Turning to `C=C(C)C(=O)Nc1ccc(F)c(Nc2nc(Nc3cnn(C)c3)ncc2Cl)c1` [Compound 12, N-(3-((5-chloro-2-((1-methyl-1H-pyrazol-4-yl)amino)pyrimidin-4-yl)amino)-4-fluorophenyl)methacrylamide], the GI50 is greater than 10 µM in test [1], greater than 10 µM in test [2] and 7.03 µM in test [3]. Also, the concentration for half-maximal inhibition (IC50) with A431 cells was greater than 10 µM.
Turning to `C=CC(=O)Nc1ccc(OC)c(Nc2nc(Nc3cnn(C)c3)ncc2Cl)c1` [Compound 13, N-(3-((5-chloro-2-((1-methyl-1H-pyrazol-4-yl)amino)pyrimidin-4-yl)amino)-4-methoxyphenyl)acrylamide], the GI50 in test [1], in test [2] and in test [3] was greater than 10 µM in each case. Further, the IC50 in the test with A431 cells is greater than 10 µM.
For `C=CC(=O)Nc1ccc(F)c(Nc2nc(Nc3cnn(CCO)c3)ncc2Cl)c1` [Compound 15, N-(3-((5-chloro-2-((1-(2-hydroxyethyl)-1H-pyrazol-4-yl)amino)pyrimidin-4-yl)amino)-4-fluorophenyl)acrylamide], the GI50 in test [1] was found to be 0.373 µM; in test [2], 0.371 µM; in test [3], 0.543 µM. In addition, the IC50 in the test on A431 cells was 4.22 µM.
In the same order, the values of `CN(C)C/C=C/C(=O)Nc1ccc(F)c(Nc2nc(Nc3cnn(CCO)c3)ncc2Cl)c1` [Compound 16, (E)-N-(3-((5-chloro-2-((1-(2-hydroxyethyl)-1H-pyrazol-4-yl)amino)pyrimidin-4-yl)amino)-4-fluorophenyl)-4-(dimethylamino)but-2-enamide] are 9.06 µM, 8.84 µM, 1.7 µM and 9.04 µM.
Taken in the same sequence, the figures for `CN(C)C/C=C/C(=O)Nc1cccc(Nc2nc(Nc3cnn(C)c3)ncc2CNc2ccccc2)c1` [Compound 17, (E)-4-(dimethylamino)-N-(3-((2-((1-methyl-1H-pyrazol-4-yl)amino)-5-((phenylamino)methyl)pyrimidin-4-yl)amino)phenyl)but-2-enamide] were 1.53 µM, 1.02 µM, 1.88 µM and 7.74 µM.
In the same order, the values of `C=CC(=O)Nc1cccc(Nc2nc(Nc3cnn(C)c3)ncc2CN(C(C)=O)c2ccccc2)c1` [Compound 18] are greater than 10 µM, 7.16 µM, greater than 10 µM and greater than 10 µM.
With `C=CC(=O)Nc1cccc(Nc2nc(Nc3cnn(C)c3)ncc2CN(C(C)=O)C(C)c2ccccc2)c1` (stereo not shown) [Compound 19, N-(3-((2-((1-methyl-1H-pyrazol-4-yl)amino)-5-((N-(1-phenylethyl)acetamido)methyl)pyrimidin-4-yl)amino)phenyl)acrylamide], the GI50 in test [1], in test [2] and in test [3] was greater than 10 µM throughout. Moreover, in the test on A431 cells, the half-maximal inhibitory concentration (IC50) was greater than 10 µM.
Take `C=CC(=O)Nc1cccc(Nc2nc(Nc3cnn(C)c3)ncc2NS(=O)(=O)c2ccccc2)c1` [Compound 29, N-(3-((2-((1-methyl-1H-pyrazol-4-yl)amino)-5-(phenylsulfonamido)pyrimidin-4-yl)amino)phenyl)acrylamide]: the GI50 in test [1], in test [2] and in test [3] was greater than 10 µM each time. Also, in the test on A431 cells, the half-maximal inhibitory concentration (IC50) was greater than 10 µM.
Regarding `C=CC(=O)Nc1ccc(F)c(Nc2nc(Nc3ccn(C)n3)ncc2Cl)c1` [Compound 30, N-(3-((5-chloro-2-((1-methyl-1H-pyrazol-3-yl)amino)pyrimidin-4-yl)amino)-4-fluorophenyl)acrylamide], the GI50 in test [1] is greater than 10 µM; in test [2], 9.63 µM; in test [3] it was 2.64 µM. For the same molecule, the concentration for half-maximal inhibition (IC50) with A431 cells is greater than 10 µM.

The values are drawn from patent US12686673B2 (Blueprint Medicines Corporation, priority 2020, dated 2026).
